Assay results published in patent US20260226071A1, “2, 4-DIANILINOPYRIMIDINE-BASED AURORA-A KINASE SELECTIVE DEGRADATION INDUCING COMPOUNDS” (UPPTHERA, INC., priority 2023, published 2026).

Target: T1, Aurora kinase A (AURKA) (Homo sapiens, UniProt O14965)
T1 construct: endogenous in cells; host or cells: HeLa LgBit (AURKA-HiBit KI), CRISPR/Cas9 knock-in at the endogenous AURKA locus
T1 sequence (O14965 1-403): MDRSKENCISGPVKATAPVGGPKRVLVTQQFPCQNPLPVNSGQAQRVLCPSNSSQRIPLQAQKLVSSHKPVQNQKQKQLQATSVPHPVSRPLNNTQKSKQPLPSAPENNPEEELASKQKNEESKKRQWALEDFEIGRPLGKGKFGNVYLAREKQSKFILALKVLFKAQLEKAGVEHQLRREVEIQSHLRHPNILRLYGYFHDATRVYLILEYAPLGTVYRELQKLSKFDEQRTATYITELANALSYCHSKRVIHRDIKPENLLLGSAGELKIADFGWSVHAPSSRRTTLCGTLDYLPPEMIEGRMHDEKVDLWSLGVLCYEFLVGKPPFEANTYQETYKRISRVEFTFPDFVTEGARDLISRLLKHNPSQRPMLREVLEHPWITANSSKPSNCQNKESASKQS
Assay: Luciferase assay for AURKA in HeLa LgBit (AURKA-HiBit KI) cell line
Format: cell-based
Conditions: HeLa LgBit (AURKA-HiBit KI) cells, measured after 12 hours
Text: HeLa cell lines that stably express LgBit were constructed via LgBit vector transfection. Then, donor DNA and guide RNA for insertion of HiBit amino acid sequence at C-terminus of inherent Aurora kinase A (AURKA) genes were designed and constructed. Thereafter, they were transfected into the cell lines with CRISPR/Cas9 expression vector system. HiBit gene knock-in single cells were selected, passaged and used for the experiments.
For cell culture, DMEM (Gibco, Cat. No. 11995-065; Lot. No. 2562497), FBS (Gibco, Cat. No. 16000-044; Lot. No. 2511328P), Penicillin/Streptomycin (PS) (Gibco, Cat. No. 15140-122; Lot. No. 2585636), 90 mm^2 cell culture dish (SPL, Cat. No. 20100), 96-well white plate, PBS pH 7.4 (Gibco, […]), TrypLE™ Express (Gibco, Cat. No. 12605-010; Lot. No. 2522525), counting chamber (hematocytometer) (Hirschmann, Cat. No. 8100204; Lot. No. 8021087) and 0.4% Trypan Blue solution (DYNEBIO, Cat. No. CBT3710; Lot. No. 20231017) were used. Cells were cultured in DMEM supplemented with 10% FBS and 1% PS and incubated in CO2 incubator (Thermo, Cat. No. 4111) at 37° C., 5% CO2 condition.
HeLa LgBit (AURKA-HiBit KI) cell lines were cultured in 90 mm^2 cell culture dish, and 3×10^4 cells in […] of total medium volume were seeded and incubated for 18 hours in CO2 incubator. Then, Eudurazine (Promega, Cat. No. N247B; Lot. No. 495218) was added to each well to make up 1% of the total volume, followed by further incubation for 2 hours in CO2 incubator.
The present compounds were fully dissolved in DMSO (Sigma-Aldrich Cat. No. D2438, Lot. No. RNBL7287) and 10 nM or 100 nM of total concentration were used in the experiment. After adding the compounds in each well of 96-well white plate, the plate was placed in the plate reader (BMG Labtech, CLARIOstar Plus) for real-time analysis. The wavelength for analysis was set to […], and the luminescence value was measured after 12 hours. The luminescence value was analyzed through an Excel program.

| luminescence value (Level) (10 nM compound) | luminescence value (Level) (100 nM compound) | Compound |
| --- | --- | --- |
| B (B is 0.3 to 0.5) | A (A is <0.2) | O=C1CCC(Nc2ccc(N3CC4CN(CC5CN(C(=O)c6ccc(Nc7ncc(F)c(Nc8ccc(C(=O)Nc9ccccc9Cl)cc8)n7)cc6)C5)CC4C3)cc2)C(=O)N1 (centres unmarked) [Compound 34, N-(2-chlorophenyl)-4-((2-((4-(3-((5-(4-((2,6-dioxopiperidin-3-yl)amino)phenyl)hexahydropyrrolo[3,4-c]pyrrol-2(1H)-yl)methyl)azetidine-1-carbonyl)phenyl)amino)-5-fluoropyrimidin-4-yl)amino)benzamide] |
| B (B is 0.3 to 0.5) | B (B is 0.2 to 0.4) | O=C1CCC(Nc2ccc(N3CCN(C[C@@H]4[C@H]5CN(C(=O)c6ccc(Nc7ncc(F)c(Nc8ccc(C(=O)Nc9ccccc9Cl)cc8)n7)cc6)C[C@@H]45)CC3)cc2)C(=O)N1 (stereo partly drawn) [Compound 37, N-(2-chlorophenyl)-4-((2-((4-((1R,5S,6s)-6-((4-(4-((2,6-dioxopiperidin-3-yl)amino)phenyl)piperazin-1-yl)methyl)-3-azabicyclo[3.1.0]hexane-3-carbonyl)phenyl)amino)-5-fluoropyrimidin-4-yl)amino)benzamide] |
| B (B is 0.3 to 0.5) | A (A is <0.2) | O=C1CCC(Nc2ccc(N3CCCN(C[C@H]4CC[C@H](NC(=O)c5ccc(Nc6ncc(F)c(Nc7ccc(C(=O)Nc8ccccc8Cl)cc7)n6)cc5)CC4)CC3)cc2)C(=O)N1 (some centres unmarked) [Compound 39, N-(2-chlorophenyl)-4-((2-((4-(((1r,4r)-4-((4-(4-((2,6-dioxopiperidin-3-yl)amino)phenyl)-1,4-diazepan-1-yl)methyl)cyclohexyl)carbamoyl)phenyl)amino)-5-fluoropyrimidin-4-yl)amino)benzamide] |
| B (B is 0.3 to 0.5) | A (A is <0.2) | O=C1CCC(Nc2ccc(N3CCC(CN4C[C@@H]5[C@H](C4)[C@H]5NC(=O)c4ccc(Nc5ncc(F)c(Nc6ccc(C(=O)Nc7ccccc7Cl)cc6)n5)cc4)CC3)cc2)C(=O)N1 (stereo partly drawn) [Compound 40, N-(2-chlorophenyl)-4-((2-((4-(((1R,5S,6s)-3-((1-(4-((2,6-dioxopiperidin-3-yl)amino)phenyl)piperidin-4-yl)methyl)-3-azabicyclo[3.1.0]hexan-6-yl)carbamoyl)phenyl)amino)-5-fluoropyrimidin-4-yl)amino)benzamide] |
| B (B is 0.3 to 0.5) | B (B is 0.2 to 0.4) | O=C1CCC(Nc2ccc(N3CCC(CN4C[C@H]5C[C@H](NC(=O)c6ccc(Nc7ncc(F)c(Nc8ccc(C(=O)Nc9ccccc9Cl)cc8)n7)cc6)C[C@H]5C4)CC3)cc2)C(=O)N1 (stereo partly drawn) [Compound 41, N-(2-chlorophenyl)-4-((2-((4-(((3aR,5s,6aS)-2-((1-(4-((2,6-dioxopiperidin-3-yl)amino)phenyl)piperidin-4-yl)methyl)octahydrocyclopenta[c]pyrrol-5-yl)carbamoyl)phenyl)amino)-5-fluoropyrimidin-4-yl)amino)benzamide] |
| B (B is 0.3 to 0.5) | A (A is <0.2) | O=C1CCC(Nc2ccc(N3CC4(CN(CC5CCN(C(=O)c6ccc(Nc7ncc(F)c(Nc8ccc(C(=O)Nc9ccccc9Cl)cc8)n7)cc6)CC5)C4)C3)cc2)C(=O)N1 (centres unmarked) [Compound 42, N-(2-chlorophenyl)-4-((2-((4-(4-((6-(4-((2,6-dioxopiperidin-3-yl)amino)phenyl)-2,6-diazaspiro[3.3]heptan-2-yl)methyl)piperidine-1-carbonyl)phenyl)amino)-5-fluoropyrimidin-4-yl)amino)benzamide] |
| C (C is 0.5 to 0.7) | B (B is 0.2 to 0.4) | O=C1CCC(NC(=O)c2ccc(N3CCC(CN4CCN(C(=O)Cc5ccc(Nc6ncc(F)c(Nc7ccc(C(=O)Nc8ccccc8Cl)cc7)n6)cc5)CC4)CC3)cc2)C(=O)N1 (centres unmarked) [Compound 46, N-(2-chlorophenyl)-4-((2-((4-(2-(4-((1-(4-((2,6-dioxopiperidin-3-yl)carbamoyl)phenyl)piperidin-4-yl)methyl)piperazin-1-yl)-2-oxoethyl)phenyl)amino)-5-fluoropyrimidin-4-yl)amino)benzamide] |
| D (D is 0.7 to 0.8) | B (B is 0.2 to 0.4) | O=C1CCC(NC(=O)c2cccc(N3CCC(CN4CCN(C(=O)Cc5ccc(Nc6ncc(F)c(Nc7ccc(C(=O)Nc8ccccc8Cl)cc7)n6)cc5)CC4)CC3)c2)C(=O)N1 (centres unmarked) [Compound 47, 3-(4-((4-(2-(4-((4-((4-((2-chlorophenyl)carbamoyl)phenyl)amino)-5-fluoropyrimidin-2-yl)amino)phenyl)acetyl)piperazin-1-yl)methyl)piperidin-1-yl)-N-(2,6-dioxopiperidin-3-yl)benzamide] |
| B (B is 0.3 to 0.5) | B (B is 0.2 to 0.4) | O=C1CCN(c2ccc(N3CCN(CCC4CCN(NC(=O)c5ccc(Nc6ncc(F)c(Nc7ccc(C(=O)Nc8ccccc8Cl)cc7)n6)cc5)CC4)CC3)cc2)C(=O)N1 [Compound 54, N-(2-chlorophenyl)-4-[[2-[4-[[4-[2-[4-[4-(2,4-dioxohexahydropyrimidin-1-yl)phenyl]piperazin-1-yl]ethyl]-1-piperidyl]carbamoyl]anilino]-5-fluoro-pyrimidin-4-yl]amino]benzamide] |
| C (C is 0.5 to 0.7) | A (A is <0.2) | Cc1cc(Nc2nc(Nc3ccc(C(=O)NN4CCC(CCN5CCN(c6ccc(C7CCC(=O)NC7=O)cc6)CC5)CC4)cc3)ncc2F)n[nH]1 (centres unmarked) [Compound 59, N-(4-(2-(4-(4-(2,6-dioxopiperidin-3-yl)phenyl)piperazin-1-yl)ethyl)piperidin-1-yl)-4-((5-fluoro-4-((5-methyl-1H-pyrazol-3-yl)amino)pyrimidin-2-yl)amino)benzamide] |
| D (D is 0.7 to 0.8) | B (B is 0.2 to 0.4) | O=C1CCC(c2ccc(N3CCC4(CC3)CC(C3CCN(NC(=O)c5ccc(Nc6ncc(F)c(Nc7ccc(C(=O)Nc8ccccc8Cl)cc7)n6)cc5)CC3)C4)cc2)C(=O)N1 (centres unmarked) [Compound 60, N-(2-chlorophenyl)-4-((2-((4-((4-(7-(4-(2,6-dioxopiperidin-3-yl)phenyl)-7-azaspiro[3.5]nonan-2-yl)piperidin-1-yl)carbamoyl)phenyl)amino)-5-fluoropyrimidin-4-yl)amino)benzamide] |
| C (C is 0.5 to 0.7) | A (A is <0.2) | O=C1CCC(c2ccc(N3CCN(CCC4CCN(NC(=O)c5ccc(Nc6ncc(F)c(Nc7cc(C8CC8)[nH]n7)n6)cc5)CC4)CC3)cc2)C(=O)N1 (centres unmarked) [Compound 61, 4-((4-((5-cyclopropyl-1H-pyrazol-3-yl)amino)-5-fluoropyrimidin-2-yl)amino)-N-(4-(2-(4-(4-(2,6-dioxopiperidin-3-yl)phenyl)piperazin-1-yl)ethyl)piperidin-1-yl)benzamide] |
| B (B is 0.3 to 0.5) | A (A is <0.2) | O=C1CCC(c2ccc(N3CCC(CN4CCC(CNC(=O)c5ccc(Nc6ncc(F)c(Nc7ccc(C(=O)Nc8ccccc8Cl)cc7)n6)cc5)CC4)CC3)cc2)C(=O)N1 (centres unmarked) [Compound 62, N-(2-chlorophenyl)-4-((2-((4-(((1-((1-(4-(2,6-dioxopiperidin-3-yl)phenyl)piperidin-4-yl)methyl)piperidin-4-yl)methyl)carbamoyl)phenyl)amino)-5-fluoropyrimidin-4-yl)amino)benzamide] |
